The subject of test [1] is OTC8 (DNA, aptamer) GACGACGGGCAAGATCTATTCTTCACGTTCACCTTTGTCGTC
Nature of the test: intrinsic fluorescence titration of OTC. The settings on record: 50 mM NaCl, 2 mM MgCl2; 10 mM MES pH 6.0; 100 nM OTC; 1 min equilibration.

The test system of test [2] is OTC26 (DNA, aptamer) GACGACATAGCTTGCTACCACTCGTCTCCGTAGTGGCAGTCGTC
Kind of test: intrinsic fluorescence titration of OTC. The following applies: 50 mM NaCl, 2 mM MgCl2; 10 mM MES pH 6.0; 100 nM OTC; 1 min equilibration.

Test [3] deals with OTC43 (DNA, aptamer) GACGACTGGACCCTTCTGTGGTAGATTCTATCTAATGTCGTC
Kind of test: intrinsic fluorescence titration of OTC. The following applies: 50 mM NaCl, 2 mM MgCl2; 10 mM MES pH 6.0; 100 nM OTC; 1 min equilibration.

Test [4] has as its system OTC22 (DNA, aptamer) GACGACAAAGCGTCTTACGTGCATACTTTTGTTGTCGTC
Nature of the test: ITC. The settings on record: 50 mM NaCl, 2 mM MgCl2; 10 mM MES pH 6.0, 25 °C; 9 μM aptamer, 150 μM OTC.

Test [5] deals with OTC11 (DNA, aptamer) GACGACGCAGACATCTTGTGTGTCATAGCGCGCTACGTCGTC
Nature of the test: intrinsic fluorescence titration of OTC. The settings on record: 50 mM NaCl, 2 mM MgCl2; 10 mM MES pH 6.0; 100 nM OTC; 1 min equilibration.

Test [6] has as its system OTC23 (DNA, aptamer) GACGACGTGCTATTGCCTCAGTCATTCTCTGAGTCGTCGTC
Nature of the test: intrinsic fluorescence titration of OTC. The following applies: 50 mM NaCl, 2 mM MgCl2; 10 mM MES pH 6.0; 100 nM OTC; 1 min equilibration.

For test [7], the system named is OTC2 (DNA, aptamer) GACGACGCAATGTCCTTCGCAGGATCCGTTTACGGTGTCGTC
Nature of the test: ITC. The settings on record: 50 mM NaCl, 2 mM MgCl2; 10 mM MES pH 6.0, 25 °C; 9 μM aptamer, 150 μM OTC.

For test [8], the system named is OTC34 (DNA, aptamer) GACGACGCAGTCTGATTTCAGCCATAGTTTTACTGCGTCGTC
Kind of test: intrinsic fluorescence titration of OTC. The following applies: 50 mM NaCl, 2 mM MgCl2; 10 mM MES pH 6.0; 100 nM OTC; 1 min equilibration.

In test [9] the test system is OTC22 (DNA, aptamer) GACGACAAAGCGTCTTACGTGCATACTTTTGTTGTCGTC
Nature of the test: intrinsic fluorescence titration of OTC. The settings on record: 50 mM NaCl, 2 mM MgCl2; 10 mM MES pH 6.0; 100 nM OTC; 1 min equilibration.

Test [10] concerns OTC2 (DNA, aptamer) GACGACGCAATGTCCTTCGCAGGATCCGTTTACGGTGTCGTC
Nature of the test: intrinsic fluorescence titration of OTC. The settings on record: 50 mM NaCl, 2 mM MgCl2; 10 mM MES pH 6.0; 100 nM OTC; 12 min equilibration per addition (0.57 μM after 1 min).

The test system of test [11] is OTC43 (DNA, aptamer) GACGACTGGACCCTTCTGTGGTAGATTCTATCTAATGTCGTC
Nature of the test: ITC. The settings on record: 50 mM NaCl, 2 mM MgCl2; 10 mM MES pH 6.0, 25 °C; 9 μM aptamer, 150 μM OTC.

Structures are written as SMILES.

In general, Kd refers to the concentration at which binding is half-saturated. Low values mean a tighter complex, high ones a looser complex. For `CN(C)[C@@H]1C(=O)C(C(N)=O)=C(O)[C@@]2(O)C(=O)C3=C(O)c4c(O)cccc4[C@@](C)(O)[C@H]3[C@H](O)[C@@H]12`, the Kd in test [1] stood at 200 nM; in [2], 590 nM; in [3], 690 nM; in [4], 490 ± 110 nM; in test [5] it was 320 nM; in test [6], 360 nM. Also, the Kd in test [7] is 62 ± 20 nM; in [8] it was 530 nM; in [9], 290 nM; in test [10] it was 81 nM; in test [11] it was 1600 ± 570 nM.
